Assay results as given in US20240398781A1, “SPIROCYCLIC CYCLIC MODULATORS OF CHOLESTEROL BIOSYNTHESIS AND THEIR USE FOR PROMOTING REMYELINATION” (GENENTECH, INC., priority 2021, published 2024).
Like-named read-outs stand apart in the source and are kept apart here.

Legend:
human EBP = human EBP (Homo sapiens (Human), UniProt Q15125); test: Competition binding assay (SPA, [3H]-Ifenprodil) to determine compound affinity to EBP; settings: read-out: hEBP SPA Ki
Experimental: Membrane preparation: To examine compound binding affinity to EBP, human EBP was overexpressed in human embryonic kidney 293 cells. Cell pellet was lysed in 10 times weight binding buffer (50 mM Tris, 5 mM MgCl2, 0.1 mM EDTA, lx protease inhibitor cocktail, pH 7.5) on ice by using a dounce homogenizer. The solution was centrifuged at 25,000 g for 50 min at 4° C. The membrane pellet was re-suspended in binding buffer and run through a 25 5/8 gauge needle. After checking the concentration by Bradford assay, the whole cell membrane solution was adjusted to 20 mg/mL and stored at −80° C.
This binding solution was centrifuged at 400 g for 5 minutes to collect the bead/membrane mixture. After re-suspending the pellet in binding buffer at the same calculated volume with 0.01% BSA (Sigma A1933), the bead/membrane mixture was added in 384-well low-binding surface plate (PerkinElmer Cat #6057480) at 25 μl/well. Radioligand at different concentrations with and without the non-radio-labeled same ligand 5 uM (for nonspecific and total signal, respectively) was added to bring final volume to 50 µl/well with DMSO concentration at 0.1%. At equilibrium (3 hours after ligand addition), radiometric signal CPM was counted by using a Microbeta2 microplate counter (Perkinelmer).
Competition binding assay to determine compound affinity: The same conditions of the radioligand Kd study were used for compound single dose percentage inhibition and equilibrium dissociation constant Ki examinations, except 50 nL compound DMSO stock was pre-added in 384-well low-binding surface plate (PerkinElmer Cat #6057480) by Echo 550 (Labcyte) to reach the final concentration for single dose test at 1 uM, and dose response test from 0.06 nM to 5 uM (8 dose, 5 times dilution). A pre-incubated bead/membrane mixture was added in compound plate at 0.3 mg beads and […] membrane per well. […] At equilibrium (3 hours after ligand addition), radiometric signal was counted as described above. The percentage inhibition of compound at each testing concentration was calculated by normalizing each condition's CPM readout to full block (5 uM non-radiolabeled ligand) and non-block (DMSO) control conditions. Compound binding inhibition IC50 was determined by nonlinear regression fitting of percentage inhibition plot against compound concentration. Compound Ki was calculated from the equation Ki=IC50/(1+[L]/Kd), which [L] was radioligand concentration used in assay. All tests had N bigger or equal to 2.

[1] = target: human emopamil binding protein and human 7-dehydrocholesterol reductase co-expressing cells (hEBP-DHCR7 membrane) (Homo sapiens (Human), UniProt Q15125); test: Radioligand filter binding assay on hEBP-DHCR7 membrane; settings: [3H]-(S)-6-(2-Methyl-3-(6-(trifluoromethyl)pyridin-3-yl)propyl)-2-thia-6-azaspiro[3.4]octane 2,2-dioxide radioligand, HEK293 membrane co-expressing hEBP and hDHCR7
Method in brief: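 HEK293 cells transiently co-expressing human EBP and DHCR7 supplied whole-cell membranes (10 μg/well), incubated 3 h at 22 °C with [3H]-labelled spiro-octane dioxide ligand (added at 25 nM) and compound (0.06-5000 nM final, 8 doses, n=2). Bound ligand was collected on PEI-treated GF/B filters and counted by scintillation. IC50 was Hill-fitted from % inhibition and reported as Ki.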

[2] = [3H]-Ifenprodil 10 nM, HEK293 membrane overexpressing human EBP, Ki=IC50/(1+[L]/Kd)

Sequence of human emopamil binding protein and human 7-dehydrocholesterol reductase co-expressing cells (hEBP-DHCR7 membrane) (Q15125 whole entry): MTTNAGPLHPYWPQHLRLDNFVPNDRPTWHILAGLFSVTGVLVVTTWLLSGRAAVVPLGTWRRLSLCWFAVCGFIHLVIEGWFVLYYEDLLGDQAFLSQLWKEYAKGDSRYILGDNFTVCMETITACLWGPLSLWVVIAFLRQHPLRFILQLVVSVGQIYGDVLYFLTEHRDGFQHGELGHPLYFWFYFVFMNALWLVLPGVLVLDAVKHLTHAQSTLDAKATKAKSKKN
Sequence of human EBP (Q15125 whole entry): as above

SMILES | Ki (human EBP; [2]) [nM] | Ki [1] [nM] | Ki (human EBP) [nM]
O=S1(=O)CC2(CCN([C@H]3CCN(c4ccc(C(F)(F)F)nc4)C3)C2)C1 (single isomer, unassigned) [9A*] | 34 | 58.3 | –
O=S1(=O)CC2(CCN([C@@H]3CCN(c4ccc(C(F)(F)F)nc4)C3)C2)C1 (single isomer, unassigned) [9B*] | 170 | 245 | –
CC(C)n1nc(-c2ccc(C(F)(F)F)nc2)nc1[C@H]1CC[C@H](N2CCC3(C2)CS(=O)(=O)C3)C1 (single isomer, unassigned) [17B*] | 31 | 36 | –
CC(C)n1nc(-c2ccc(C(F)(F)F)nc2)nc1[C@H]1CC[C@@H](N2CCC3(C2)CS(=O)(=O)C3)C1 (single isomer, unassigned) [17D*] | 20 | 64 | –
CC(C)n1nc(C2CC2)nc1[C@@H]1CC[C@H](N2CCC3(C2)CS(=O)(=O)C3)C1 (single isomer, unassigned) [18A*] | 310 | 960 | –
CC(C)n1nc(C2CC2)nc1[C@H]1CC[C@H](N2CCC3(C2)CS(=O)(=O)C3)C1 (single isomer, unassigned) [18B*, 6-(3-(3-cyclopropyl-1-isopropyl-1H-1,2,4-triazol-5-yl)cyclopentyl)-2-thia-6-azaspiro[3.4]octane 2,2-dioxide] | 210 | 650 | –
CC(C)n1nc(C2CC2)nc1[C@@H]1CC[C@@H](N2CCC3(C2)CS(=O)(=O)C3)C1 (single isomer, unassigned) [18C*] | 82 | 811 | –
CC(C)n1nc(C2CC2)nc1[C@H]1CC[C@@H](N2CCC3(C2)CS(=O)(=O)C3)C1 (single isomer, unassigned) [18D*, 6-(3-(3-cyclopropyl-1-isopropyl-1H-1,2,4-triazol-5-yl)cyclopentyl)-2-thia-6-azaspiro[3.4]octane 2,2-dioxide] | 270 | 1180 | –
CC(C)n1cc(C(F)(F)F)nc1[C@@H]1CC[C@@H](N2CCC3(C2)CS(=O)(=O)C3)C1 (single isomer, unassigned) [20B*] | 55 | 130 | –
O=S1(=O)CC2(CCN([C@@H]3CCCN(c4ccc(C(F)(F)F)cc4)C3)C2)C1 (single isomer, unassigned) [22A*] | 34 | 14 | –
O=S1(=O)CC2(CCN([C@H]3CCCN(c4ccc(C(F)(F)F)cc4)C3)C2)C1 (single isomer, unassigned) [22B*] | 70 | 58 | –
Cn1nc(C(F)(F)F)cc1[C@H]1CC[C@H](N2CCC[C@@]3(CCS(=O)(=O)C3)C2)CC1 (single isomer, unassigned) [26A*] | 33 | 25 | –
Cn1nc(C(F)(F)F)cc1[C@H]1CC[C@H](N2CCC[C@]3(CCS(=O)(=O)C3)C2)CC1 (single isomer, unassigned) [26B*] | 21 | 12 | –
Cn1nc(C(F)(F)F)cc1[C@H]1CC[C@H](N2CC[C@@]3(CCS(=O)(=O)C3)C2)CC1 (single isomer, unassigned) [27A*] | 39 | 260 | –
Cn1nc(C(F)(F)F)cc1[C@H]1CC[C@H](N2CC[C@]3(CCS(=O)(=O)C3)C2)CC1 (single isomer, unassigned) [27B*] | 46 | 180 | –
Cn1nc(C(F)(F)F)cc1[C@H]1CC[C@@H](N2CC[C@]3(CCS(=O)(=O)C3)C2)CC1 (single isomer, unassigned) [38A*] | 27 | 82 | –
Cn1nc(C(F)(F)F)cc1[C@H]1CC[C@@H](N2CC[C@@]3(CCS(=O)(=O)C3)C2)CC1 (single isomer, unassigned) [38B*] | 24 | 50 | –
Cn1nc(C(F)(F)F)cc1[C@H]1CC[C@H](N2CC[C@]3(CCS(=O)(=O)C3)C2)CC1 (single isomer, unassigned) [38C*] | 29 | 260 | –
O=S1(=O)CC2(CCN([C@H]3CO[C@@H](c4ccc(C(F)(F)F)cc4)C3)C2)C1 (stereo in doubt) [19A*, 6-((3R,5R)-5-(4-(Trifluoromethyl)phenyl)tetrahydrofuran-3-yl)-2-thia-6-azaspiro[3.4]octane 2,2-dioxide] | 27 | 21 | –
O=S1(=O)CC2(CCN([C@@H]3CO[C@@H](c4ccc(C(F)(F)F)cc4)C3)C2)C1 (stereo in doubt) [19B*, 6-((3S,5R)-5-(4-(trifluoromethyl)phenyl)tetrahydrofuran-3-yl)-2-thia-6-azaspiro[3.4]octane 2,2-dioxide] | 27 | 20 | –
O=S1(=O)CC2(CCN([C@@H]3CO[C@H](c4ccc(C(F)(F)F)cc4)C3)C2)C1 (stereo in doubt) [19C*, 6-((3S,5S)-5-(4-(Trifluoromethyl)phenyl)tetrahydrofuran-3-yl)-2-thia-6-azaspiro[3.4]octane 2,2-dioxide] | 34 | 18 | –

Now from value to compound:

Ki (human EBP; [2]) [nM] | Ki [1] [nM] | Ki (human EBP) [nM] | SMILES
34 | 18.7 | – | CC(C)n1nc(C(F)(F)F)cc1[C@H]1CC[C@H](N2CCC3(C2)CS(=O)(=O)C3)C1 (single isomer, unassigned) [10A*]
19 | 21.3 | – | CC(C)n1nc(C(F)(F)F)cc1[C@H]1CC[C@@H](N2CCC3(C2)CS(=O)(=O)C3)C1 (single isomer, unassigned) [10B*]
29 | 26.6 | – | CC(C)n1nc(C(F)(F)F)cc1[C@@H]1CC[C@H](N2CCC3(C2)CS(=O)(=O)C3)C1 (single isomer, unassigned) [10C*]
35 | 35 | – | O=S1(=O)CC2(CCN([C@@H]3CC[C@H](c4ccc(C(F)(F)F)nc4)C3)C2)C1 (single isomer, unassigned) [11C*]
– | 40 | 40 | O=S1(=O)CC2(CCN(C3CC[C@H](c4ccc(C(F)(F)F)nc4)C3)C2)C1 (single isomer, unassigned) [11D*]
15 | 6.9 | – | CC(C)n1nc(-c2cncc(C(F)(F)F)c2)cc1[C@H]1CC[C@@H](N2CCC3(C2)CS(=O)(=O)C3)C1 (single isomer, unassigned) [13A*]
25 | 15 | – | CC(C)n1nc(-c2cncc(C(F)(F)F)c2)cc1[C@@H]1CC[C@H](N2CCC3(C2)CS(=O)(=O)C3)C1 (single isomer, unassigned) [13B*]
21 | 23.5 | – | CC(C)n1nc(-c2cncc(C(F)(F)F)c2)cc1[C@@H]1CC[C@@H](N2CCC3(C2)CS(=O)(=O)C3)C1 (single isomer, unassigned) [13C*]
71 | 19 | – | CC(C)n1nc(-c2cncc(C(F)(F)F)c2)cc1[C@H]1CC[C@H](N2CCC3(C2)CS(=O)(=O)C3)C1 (single isomer, unassigned) [13D*]
280 | 530 | – | CC(C)n1cc(C(F)(F)F)nc1[C@H]1CC[C@H](N2CCC3(C2)CS(=O)(=O)C3)C1 (single isomer, unassigned) [20A*]
270 | 420 | – | CC(C)n1cc(C(F)(F)F)nc1[C@H]1CC[C@@H](N2CCC3(C2)CS(=O)(=O)C3)C1 (single isomer, unassigned) [20C*]
98 | 39 | – | CC(C)n1cc(C(F)(F)F)nc1[C@@H]1CC[C@H](N2CCC3(C2)CS(=O)(=O)C3)C1 (single isomer, unassigned) [20D*]
27 | 80 | – | Cn1nc(C(F)(F)F)cc1[C@H]1CC[C@H](N2CC[C@@]3(CCS(=O)(=O)C3)C2)CC1 (single isomer, unassigned) [38D*]
54 | 37.8 | – | O=S1(=O)CC2(CCN([C@H]3CC[C@@H](c4ccc(C(F)(F)F)nc4)C3)C2)C1 (single isomer, unassigned) [Compound 11A, (Cis)-6-(3-(6-(Trifluoromethyl)pyridin-3-yl)cyclopentyl)-2-thia-6-azaspiro[3.4]octane 2,2-dioxide]
42 | 35.9 | – | O=S1(=O)CC2(CCN([C@@H]3CC[C@@H](c4ccc(C(F)(F)F)nc4)C3)C2)C1 (single isomer, unassigned) [Compound 11B, (Trans)-6-(3-(6-(Trifluoromethyl)pyridin-3-yl)cyclopentyl)-2-thia-6-azaspiro[3.4]octane 2,2-dioxide]
